Source: patent EP2072511A1 (INSERM (Institut National de la Santé et de la Recherche …, priority 2007, dated 2009)

Columns and labels:
[1] = target: T1, PrP^Sc from a prion-infected cellular lysate (Mus musculus, UniProt P04925)
[2] = target: T1, PrP^Sc from a prion-infected cellular lysate; assay: biochemical; settings: 1 h, read-out: amplification of the oligomerization in cellular extract
[3] = target: PrP^Sc from infected N2a58/22L cells (Mus musculus, UniProt P04925); assay type: cell-based, murine
Sequence of PrP^Sc from infected N2a58/22L cells (P04925 23-230 limits assumed): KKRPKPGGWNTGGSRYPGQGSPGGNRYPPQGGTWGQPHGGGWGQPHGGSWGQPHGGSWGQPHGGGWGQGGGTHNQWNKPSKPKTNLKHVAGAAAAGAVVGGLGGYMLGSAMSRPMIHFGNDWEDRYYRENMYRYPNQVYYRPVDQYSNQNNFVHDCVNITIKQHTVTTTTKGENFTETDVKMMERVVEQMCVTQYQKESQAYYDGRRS

T1 sequence (P04925 23-230 limits assumed): as above

| Compound | concentration at which the compound is efficient (oligomerization on cellular extract) [1] [µM] | fold induction at 1 µM [2] | amount of oligomeric forms observed, compared with compound T 1 or T2 under the same conditions [3] | dosis for which the saturation of the signal (effect of oligomerisation) is achieved [3] [µM] |
| --- | --- | --- | --- | --- |
| CSc1nccc(-c2ccc(Br)s2)n1 [T1] | ≥ 312 | – | – | – |
| Nc1nc(N)nc(-c2ccc(-c3ccc(-c4ccc(-c5ccc(-c6nc(N)nc(N)n6)s5)s4)s3)s2)n1 [compound I, 6,6'-(2,2':5',2":5",2'''-quaterthiophene-5,5'''-diyl)bis(1,3,5-triazine-2,4-diamine)] | – | ≥ 100 | much greater | 2.5 |
